Assay results as given in US9889146B2, “Benzoxaborole compounds and uses thereof” (priority 2012, dated 2018).
Converted amounts (≈) assume the structure as drawn. “And” between values parts separate entries of the source, which are not always exact repeats. Identical values can stand only once. Like-named read-outs stand apart in the source and are kept apart here.

How the values were obtained:
Type in all cases: cell-based
[1] = test system: E. coli clinical isolates from subject E. coli 1; assay: GSK2251052 MIC of clinical isolates, subject E. coli 1; conditions: Escherichia coli, read-out: GSK2251052 MIC GSK results
Description: The E. coli and P. mirabilis strains were cultured on Trypticase Soy Agar/5% blood plates (Becton Dickinson BBL), in cation adjusted Mueller-Hinton II Broth, or in M9 minimal salts (Becton Dickinson) broth containing 0.4% glucose and 200 uM MgSO4. L-Norvaline (Sigma-Aldrich) was prepared at a concentration of 6.4 mg/ml in […], in a final volume of approx 0.5 ml, and stored at −20° C. until required.
(§1) Minimum inhibitory concentrations (MICs) were determined using the CLSI (Clinical and Laboratory Standards Institute, formerly NCCLS) recommended broth microdilution methodology [NCCLS, 2003] using defined media.

Enterobacteriaceae = assay: organism not typed; conditions: Enterobacteriaceae
[2] = test system: E. coli clinical isolates from subject E. coli 2; assay: GSK2251052 MIC of clinical isolates, subject E. coli 2; conditions: for MIC: Escherichia coli, read-out: GSK2251052 MIC GSK results
Description: as §1
Almost all clinical isolates were determined to contain T247I in addition to a second mutation in editing domains 1 or 2. The second mutations include Asp251Asn, Ala323 Val, Arg344Cys/His and Asp345Ala. On Day 11 and at Follow Up a double mutant (R344H; D345A) was also isolated (see Table 14). For these clinical isolates, five independent colonies were characterized from day 6 to late follow-up, and leuS and promoter regions were sequenced from all isolates.

Klebsiella spp. (KPC) = assay: microbe, parasite or virus in culture; conditions: Klebsiella
K. pneumoniae ATCC 13883 = assay: Spontaneous frequency of resistance; conditions: 4 X MIC, 24 h
Method in brief: (§2)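 Resistant mutants selected by plating varying inocula on MHBII noble agar with 4× or 10× MIC of GSK2251052, 24 and 48 h at 37 °C; resistance confirmed by regrowth on drug plates. Frequency = resistant colonies ÷ total cells plated, counted from dilutions of overnight culture on LB.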

E. coli ATCC 25922 = assay: Spontaneous frequency of resistance; conditions: 10 X MIC, 24 h
Method in brief: as §2

P. aeruginosa ATCC 27853 = assay: Spontaneous frequency of resistance; conditions: 24 h
Method in brief: as §2

NC[C@H]1OB(O)c2c(OCCCO)cccc21 [GSK2251052, (S)-3-aminomethyl-7-(3-hydroxy-propoxy)-3h-benzo[c][1,2]oxaborol-1-ol]
MIC ([1]; 24 h, subject E. Coli 1, day 1, first line, no LeuRS change): 0.5 µg/mL
MIC ([1]; 24 h, subject E. Coli 1, day 1, second line, no LeuRS change): 0.25 µg/mL
MIC ([1]; 48 h): 16 µg/mL
MIC ([1]; 72 h): 16 µg/mL
MIC ([1]; 96 h): 16 µg/mL
MIC90 (Enterobacteriaceae; 2029 isolates, read-out: MIC90): 1 µg/mL (≈ 4.22 µM)
susceptibility category of MIC90 (Enterobacteriaceae; GSK2251052 breakpoint, read-out: susceptibility category of MIC90): < 4 µg/mL
MIC ([2]; 24 h, subject E. Coli 2, day 1, no LeuRS change): 0.25 µg/mL
MIC ([2]; 48 h): 512 µg/mL
MIC ([2]; 72 h): 512 µg/mL
MIC ([2]; 96 h): 512 µg/mL
MIC ([2]; 120 h): 512 µg/mL
MIC ([2]; 144 h): 1020 µg/mL
MIC ([2]; 168 h): 1020 µg/mL
MIC ([2]; 192 h): 1020 µg/mL
MIC ([2]; 216 h): 1020 µg/mL
MIC ([2]; 240 h): 1020 µg/mL
MIC ([2]; 264 h): 1020 µg/mL
MIC ([2]; 288 h): 1020 µg/mL
MIC ([2]; 312 h): 1020 µg/mL
MIC [2]: 1020 µg/mL
GSK2251052 MIC GSK results ([2]; subject E. Coli 2, Follow-up, 5x R344H, D345A): 1024 µg/mL
GSK2251052 MIC GSK results ([2]; subject E. Coli 2, day 9, 4x T247I, D251N): 1024 µg/mL
GSK2251052 MIC GSK results ([2]; subject E. Coli 2, day 10, 3x T247I, A323V): 1024 µg/mL
GSK2251052 MIC GSK results ([2]; subject E. Coli 2, day 11, 4x R344H, D345A): 1024 µg/mL
GSK2251052 MIC GSK results ([2]; subject E. Coli 2, day 12, 4x T247I, A323V): 1024 µg/mL
MIC90 (Klebsiella spp. (KPC)): 2 µg/mL (≈ 8.44 µM)
MIC90 (Klebsiella spp. (KPC); read-out: susceptibility category of MIC90): < 4 µg/mL
Frequency of Resistance (K. pneumoniae ATCC 13883): 4 × 10^−8 and 5 × 10^−8 and 8 × 10^−7
Frequency of Resistance (E. coli ATCC 25922): 8 × 10^−8 and 6 × 10^−8 and 7 × 10^−8
Frequency of Resistance (P. aeruginosa ATCC 27853; 4 X MIC): 1 × 10^−7 and 2 × 10^−7
Frequency of Resistance (P. aeruginosa ATCC 27853; 10 X MIC): 5 × 10^−8 and 9.6 × 10^−8
